# Experiments:
# [1] = tested on: IFN-γ gene expression; test: IFN-γ gene expression induced by anti-CD3 antibody stimulation in mouse colon; format: in vivo; settings: 30, 100 and 300 mg/kg, po, Balb/c mice
# Method: (§1) An anti-CD3 antibody (5 μg/500 μL/mouse, BioXcell) or saline (500 μL/mouse) was intraperitoneally administered to Balb/c mice (female, 8 weeks old). Three hours after the administration, the mice were anesthetized by ether inhalation, and euthanized by cervical spine fracture dislocation. Then, the mice underwent laparotomy, and colons were isolated. The obtained colons were washed with saline, and then, immersed in RNA stabilization buffer (RNAlater, QIAGEN) at 4° C. for 18 hours or longer. Meanwhile, a suspension of a compound in 0.5% methylcellulose was orally administered an hour before administration of anti-CD3 antibody.
# The colon tissues were retrieved from RNAlater, and immediately immersed in 5 mL of RLT buffer (RNeasy Mini Kit, QIAGEN). Then, the tissues were homogenized at room temperature. Total RNA was extracted from the homogenized solution in accordance with the protocol of RNeasy Mini Kit (QIAGEN), and cDNA was prepared using high capacity RNA-to-cDNA Kit (Applied biosystems). mRNAs of various cytokines were detected by realtime-PCR (TaqMan PCR) using the obtained cDNA as a template. […] The expression levels of each gene were shown as normalized values calculated using β-actin expression level. […]
# [2] = tested on: human PBMC; test: IL17 Production Test in Human PBMC; format: cell-based; settings: 72 h, inhibitory rate at 10 μM of test compound, anti-CD3/CD28 stimulation, 3 days, IL-17A by ELISA
# Method: Peripheral blood mononuclear cells (PBMC) collected from human peripheral blood by a density gradient centrifugation method were stimulated by Dynabeads (registered trade mark; anti-CD3/CD28 antibody) and cultured at 37° C. for 3 days. The compound was dissolved in DMSO and then added thereto. After culture for 3 days under such conditions, the concentration of IL-17A in the culture supernatant obtained by centrifugation was measured by ELISA to evaluate the effect of the compound on IL-17 production.
# [3] = tested on: Th17 cells; test: Human Th17 Cell Differentiation Test (IL-17A in culture supernatant, ELISA); format: cell-based; settings: 144 h; inhibitory rate at 10 μM of test compound; human CD4 positive naive T cells, 6 days, IL-17A by ELISA
# Method: CD4 positive naive T cells were isolated from peripheral blood mononuclear cells (PBMC) collected from human peripheral blood by a density gradient centrifugation method. The CD4 positive naive T cells were seeded in a 96 well plate (2×10^4 cells/well), and stimulated (37° C. for culture) with anti-CD 3/28Ab Dynabeads (Invitrogen) for 6 days in the presence of IL-1β, IL-6, IL-23, TGFβ, anti-IFNγ Ab (BioLegend) and anti-IL-4 Ab (BioLegend) to differentiate into Th17 cells. The compound was dissolved in DMSO and then added thereto. After culture for 6 days, the concentration of IL-17A in the culture supernatant obtained by centrifugation was measured by ELISA to evaluate differentiation of the Th17 cells.
# [4] = tested on: IL-17A gene expression; test: IL-17A gene expression in lymph node of EAE rat model; format: in vivo; settings: 30, 100 and 300 mg/kg, po twice a day; EAE-sensitized Lewis rat, 5th day
# Method: A killed Mycobacterium tuberculosis, H37Ra (DIFCO), was suspended at the concentration of 2 mg/mL in Freund Incomplete adjuvant (DIFCO), and 5 mg of MBP (Sigma) was dissolved in 1.25 mL of saline (Otsuka). These two solutions were mixed at the ratio of 1:1 using glass syringe with a three-way stopcock until emulsion was obtained. The emulsion was intracutaneously administered to the bottom of the right foot of Lewis rats (male, 7 weeks old) at 0.1 mL/rat.
# A suspension of the compound of Example 14 in 0.5% methylcellulose was orally administered twice a day from the day of sensitization at the dose of 30, 100 or 300 mg/kg. The last administration was performed on the 5th day after sensitization, and an autopsy was performed 4 hours after the last administration.
# The autopsy was performed on the 5th day after the sensitization, and popliteal lymph nodes of the right leg were collected. […] The synthesized cDNA was detected by PCR reaction using Taqman Gene Expression Master Mix (Applied Biosystems) and 7900HT Fast realtime PCR system (Applied Biosystems) (Stage 1: 50° C., 2 min, Stage 2: 95° C., 10 min, Stage 3: 95° C., 15 sec, 60° C., 1 min, 40 cycle). […]
# [5] = tested on: IL-17A gene expression; test: IL-17A gene expression induced by anti-CD3 antibody stimulation in mouse colon; format: in vivo; settings: po, Balb/c mice
# Method: as §1
# The colon tissues were retrieved from RNAlater, and immediately immersed in 5 mL of RLT buffer (RNeasy Mini Kit, QIAGEN). Then, the tissues were homogenized at room temperature. Total RNA was extracted from the homogenized solution in accordance with the protocol of RNeasy Mini Kit (QIAGEN), and cDNA was prepared using high capacity RNA-to-cDNA Kit (Applied biosystems). mRNAs of various cytokines were detected by realtime-PCR (TaqMan PCR) using the obtained cDNA as a template. TaqMan universal master mixII (Applied biosystems) was used as PCR buffer, and TaqMan Gene Expression Assays (Applied biosystems): Mm00439619_m1 (IL-17A), Mm00801778 m1 (IFN-γ) and 43252341E (β-actin) were used for detection of each cytokine gene, respectively. The expression levels of each gene were shown as normalized values calculated using β-actin expression level.
# All the data were shown as mean values±SE. Statistical analyses were performed by Student's t test and William's test.
# [6] = tested on: Th17 cells; test: Mouse Th17 Cell Differentiation Test (IL-17A in culture supernatant, ELISA); format: cell-based; settings: inhibitory rate at 10 μM of test compound; mouse CD4 positive naive T cells, 4 days, IL-17A by ELISA; 10 µM
# Method: CD4 positive naive T cells were collected from the spleen cells of BALB/c mice (female, 8-11w, Charles River Laboratories Japan, Inc.) using CD4+CD62L+ T Cell Isolation kit II (Miltenyi Biotec). The CD4 positive naive T cells in a 96 well plate (3×10^5 cells/well) were stimulated (37° C. for culture) with anti-mouse CD3ε antibody (Bio X cell) (10 μg/mL, solid phase) and anti-CD28 antibody (Bio X cell) (5 μg/mL) for 4 days in the presence of anti-IFN-γ antibody (BioLegend), anti-IL-4 antibody (BioLegend), anti-IL-2 antibody (BioLegend), IL-6, TGF-β and IL-23 to differentiate into Th17 cells. The compound was dissolved in DMSO and then added thereto. The cells were cultured under these conditions for 4 days, and differentiation of the Th17 cells was evaluated by using the concentration of IL-17A, which was measured by ELISA, in the culture supernatant obtained by centrifugation.
smiles,measurement,setting,value
"CCn1c2ccccc2c2cc(NC(=O)CC(C)CC(=O)Nc3ccc(C#N)c(Cl)c3)ccc21 (centres unmarked) [Example 14, N-(3-chloro-4-cyanophenyl)-N′-(9-ethyl-9H-carbazol-3-yl)-3-methylpentanediamide]",effect on IFN-γ expression,[1],did not affect IFN-γ expression
same,inhibition at 10 µM,[2],95%
same,inhibition at 10 µM,[3],99.3%
same,effect on increase in IL-17A gene expression in lymph node,[4],tended to suppress the increase in IL-17A gene expression
same,inhibition rate of IL-17A expression,[5]; 30 mg/kg,10%
same,inhibition rate of IL-17A expression,[5]; 100 mg/kg,25%
same,inhibition rate of IL-17A expression,[5]; 300 mg/kg,53%
same,inhibitory rate (%),[6],96.0%

# Reference: US9120776B2, “Condensed heterocyclic compound” (Takeda Pharmaceutical Company Limited, priority 2011, dated 2015)
